Experimental data taken from ChEMBL document CHEMBL1145039, “Synthesis and biological evaluation of thiol-based inhibitors of glutamate carboxypeptidase II: discovery of an orally active GCP II inhibitor” (J Med Chem, 2003).
Values belong to the compound of their own block, whether it stands above or below them.

Experiments:
[1] = biological target: T1, Glutamate carboxypeptidase 2 (Homo sapiens, UniProt Q04609);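 as to IC50: inhibition of binding of tritium-labelled N-acetyl-L-aspartyl-L-glutamate to the enzyme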
Description: Inhibition of N-acetyl-L-aspartyl-[3H]L-glutamate binding to glutamate carboxypeptidase II (GCP II)

[2] = biological target: T1, Glutamate carboxypeptidase 2; remark: listed apart in the source
Description: In vitro inhibitory activity against glutamate carboxypeptidase II (GCP II) using N-acetyl-L-aspartyl-[3H]L-glutamate as a substrate

[3] = Pharmacokinetic constant Area under curve(AUC) was determined after orally administered dose of 10 mgkg in rats; format: ADME, organism-based; parameters: dose 10 mgkg, route oral; conditions: rat, in vivo, po, 10 mg/kg
[4] = Bioavailability after orally administered dose of 10 mgkg in rats; format: ADME, organism-based; conditions: rat, in vivo, po
[5] = Half life after intravenously administered dose of 10 mgkg in rats; format: ADME, organism-based; parameters: dose 10 mgkg, route intravenous; conditions: rat, in vivo, iv, 10 mg/kg
[6] = Pharmacokinetic constant(Tmax) after orally administered dose of 10 mgkg in rats; format: ADME, organism-based; parameters: dose 10 mgkg, route oral; conditions: rat, in vivo, po, 10 mg/kg
[7] = Half life after orally administered dose of 10 mgkg in rats; format: ADME, organism-based; parameters: dose 10 mgkg, route oral; conditions: rat, in vivo, po, 10 mg/kg
[8] = Pharmacokinetic constant Area under curve(AUC) was determined after intravenously administered dose of 10 mgkg in rats; format: ADME, organism-based; parameters: dose 10 mgkg, route intravenous; conditions: rat, in vivo, iv, 10 mg/kg
[9] = Plasma concentration was determined after orally administered dose of 10 mgkg in rats; format: ADME, organism-based; parameters: dose 10 mgkg, route oral; conditions: rat, po, 10 mg/kg

T1 sequence (Q04609 whole entry): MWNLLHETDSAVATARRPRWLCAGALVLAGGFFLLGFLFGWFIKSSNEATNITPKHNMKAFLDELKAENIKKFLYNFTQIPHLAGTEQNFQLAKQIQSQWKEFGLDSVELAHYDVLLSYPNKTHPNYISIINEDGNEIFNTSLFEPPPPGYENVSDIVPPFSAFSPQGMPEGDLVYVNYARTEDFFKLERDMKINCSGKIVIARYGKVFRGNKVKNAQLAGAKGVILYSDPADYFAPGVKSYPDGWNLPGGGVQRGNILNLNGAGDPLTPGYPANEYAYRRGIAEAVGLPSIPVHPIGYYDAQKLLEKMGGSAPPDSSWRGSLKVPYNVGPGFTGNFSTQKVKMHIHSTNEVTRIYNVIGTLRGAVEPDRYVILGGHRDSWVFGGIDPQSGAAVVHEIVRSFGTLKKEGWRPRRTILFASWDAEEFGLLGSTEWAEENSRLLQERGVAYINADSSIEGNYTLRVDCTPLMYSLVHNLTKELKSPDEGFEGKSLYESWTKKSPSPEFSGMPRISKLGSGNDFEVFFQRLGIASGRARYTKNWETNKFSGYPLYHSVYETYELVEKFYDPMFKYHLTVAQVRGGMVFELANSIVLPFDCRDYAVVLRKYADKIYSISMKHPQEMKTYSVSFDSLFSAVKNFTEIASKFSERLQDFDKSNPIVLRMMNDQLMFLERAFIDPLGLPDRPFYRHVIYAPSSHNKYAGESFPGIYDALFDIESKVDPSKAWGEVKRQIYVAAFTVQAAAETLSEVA

Compound: O=C(O)CCC(C(=O)O)P(=O)(O)O (stereo not given)
IC50 [1]: 1400 nM

Compound: O=C(O)CCC(CCS)C(=O)O (stereo not given)
IC50 [1]: 580 nM

Compound: O=C(O)CCC(CCCCCS)C(=O)O (stereo not given)
IC50 [1]: 2600 nM

Compound: O=C(O)C(CS)Cc1ccccc1 (stereo not given)
Ki [2]: 11 nM

Compound: O=C(O)CCC(CCCS)C(=O)O (stereo not given)
AUC [3]: 1820 ng·h/mL | bioavailability [4]: 71% | half-life [5]: 63 min | Tmax [6]: 9.6 min | half-life [7]: 70.8 min | AUC [8]: 2550 ng·h/mL | Cmax [9]: 2230 ng/mL

Compound: O=C(O)CCC(S)C(=O)O (stereo not given)
IC50 [1]: 2600 nM

Compound: O=C(O)CCC(CCCSC(c1ccccc1)(c1ccccc1)c1ccccc1)C(=O)O (stereo not given)
IC50 [1]: > 10000 nM

Compound: O=C(O)CCC(CCCSSCCCC(CCC(=O)O)C(=O)O)C(=O)O (stereo not given)
AUC [3]: 53 ng·h/mL | half-life [5]: 22.2 min | Tmax [6]: 54 min | half-life [7]: 116 min | IC50 [1]: 3100 nM | AUC [8]: 190 ng·h/mL | Cmax [9]: 44 ng/mL

More lines, now with the values ahead:

IC50 [1]: 1400 nM
Compound: O=C(O)CCCCS

IC50 [1]: 6500 nM
Compound: CSCCCC(CCC(=O)O)C(=O)O (stereo not given)

IC50 [1]: 1100 nM
Compound: O=C(O)CCC(CCCCS)C(=O)O (stereo not given)

IC50 [1]: 6000 nM
Compound: O=C(O)CCC(CS)C(=O)O (stereo not given)

IC50 [1]: 1200 nM
Compound: O=C(O)CCC(CCP(=O)(O)O)C(=O)O (stereo not given)
